Source: patent US6821994B2, “Carboxylic acid derivative and a pharmaceutical composition containing the derivative as active ingredient” (Ono Pharmaceutical Co., Ltd., priority 1998, dated 2004)

Key:
[1] = biological target: T1, human PPARγ (Homo sapiens, UniProt P37231); assay: Luciferase assay using human PPARγ (Gal4-PPARγ ligand binding domain chimeric receptor, CV-1 host cells); assay type: cell-based; conditions: PPARγ agonistic activity; compound 10 μM; luciferase activity of troglitazone (10 μM) defined as 1.0; CV-1 cells
T1 construct: expressed in transfected cells; host or cells: CV-1 cells
T1 sequence (P37231 204-505): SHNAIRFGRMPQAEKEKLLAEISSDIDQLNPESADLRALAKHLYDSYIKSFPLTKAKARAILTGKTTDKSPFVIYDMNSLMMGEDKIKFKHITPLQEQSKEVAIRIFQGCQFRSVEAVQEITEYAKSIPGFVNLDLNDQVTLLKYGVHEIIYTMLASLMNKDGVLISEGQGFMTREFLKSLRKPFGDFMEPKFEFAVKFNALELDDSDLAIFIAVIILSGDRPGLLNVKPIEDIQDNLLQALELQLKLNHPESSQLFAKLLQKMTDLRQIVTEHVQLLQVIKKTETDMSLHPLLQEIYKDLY

[2] = biological target: T2, human PPARα (Homo sapiens, UniProt Q07869); assay: Luciferase assay using human PPARα (Gal4-PPARα ligand binding domain chimeric receptor, CV-1 host cells); assay type: cell-based; conditions: PPARα agonistic activity; compound 10 μM; luciferase activity of carbacyclin (10 μM) defined as 1.0; CV-1 cells
T2 construct: expressed in transfected cells; host or cells: CV-1 cells
T2 sequence (Q07869 167-468): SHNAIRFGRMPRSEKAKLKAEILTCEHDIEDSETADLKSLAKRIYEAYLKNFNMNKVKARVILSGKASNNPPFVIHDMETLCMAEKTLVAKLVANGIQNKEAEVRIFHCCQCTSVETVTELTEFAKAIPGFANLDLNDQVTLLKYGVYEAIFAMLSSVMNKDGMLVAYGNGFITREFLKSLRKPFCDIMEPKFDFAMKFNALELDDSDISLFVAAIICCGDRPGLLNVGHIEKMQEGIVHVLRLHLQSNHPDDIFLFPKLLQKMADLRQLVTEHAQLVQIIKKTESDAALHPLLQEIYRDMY

[3] = test system: SD rats; assay: Hypocholesterolemic and hypolipidemic effects in SD rats given hypercholesterolemic food; assay type: in vivo; conditions: male SD rats, orally in 0.5% CMC, then hypercholesterolemic food, blood at 9:00 of the next day; for IG level: control 163 ± 18; for IC level: control 167 ± 13; for NEFA level: control 615 ± 80
Description: Male, six-weeks old SD rats (five rats per group) were left to take milled diet and water ad libitum and were acclimatized for 1 week.
At 9:00 on the first day of the experiment (Day 0), blood sampling was done from tail vein. The rats were divided into some groups according to body weight, triglyceride (TG), non-esterified fatty acid (NEFA) and total cholesterol (TC) levels to minimize differences of the parameters among the groups. At 17:00 of the day, the compound of the present invention dissolved in 0.5% aqueous solution of carboxymethylcellulose (CMC) was orally administered, and thereafter, with hypercholesterolemic food (5.5% peanut oil, 1.5% cholesterol and 0.5% cholic acid were mixed with milled CRF-1 diet, Charles River Inc.) was given to the rats.
At 9:00 of the next day, blood sampling was done from tail vein. The lipid levels in blood (TG, NEFA and TC levels) after administration of the compounds of the present invention were measured. There was no significant difference of the food intake between the control group (provided only 0.5% CMC) and the group treated with the compounds of the present invention.

[4] = test system: KKAy/Ta mice; assay: Hypoglycemic and hypolipidemic effects in KKAy/Ta mice; assay type: in vivo; conditions: male KKAy/Ta mice, food mixture containing 0.03% (w/w) compound (43-47 mg/kg/day conversion value), 4 days; for TG level: control 439 ± 234; for blood sugar level: control 520 ± 147
Description: Male, 7-weeks old KKAy/Ta mice weighed from 35 to 40 g (five mice per group) were pre-breaded for approximately one week and acclimatized for three days on milled diet. On the first day of the experiment (Day 0), mice were divided into some groups according to weight, plasma glucose and triglyceride (TG) levels to minimize the differences among groups. […] At 13:00 of the third day, blood samples were collected to measure glucose and TG levels. Additionally, there was no significant difference in the food intake between control group (milled diet only) and compounds-treated group (milled diet containing 0.03% compounds).

SMILES | Relative Activity to a positive control compound (troglitazone = 1) [1] | Relative Activity to a positive control compound (carbacyclin = 1) [2] | IG level [3] [mg/dL] | IC level [3] [mg/dL] | NEFA level [3] [µEq/l] | TG level [4] [mg/dL] | blood sugar level [4] [mg/dL]
Cc1oc(-c2ccccc2)nc1Cc1ccc(/C=C/CSCC(=O)O)o1 [Example 3, 2-((2E)-3-(5-(5-methyl-2-phenyloxazol-4-ylmethyl)furan-2-yl)-2-propenylthio)acetic acid] | 2.3 | 2.6 | 73 ± 7 | 87 ± 5 | 207 ± 25 | 43 ± 12 | 260 ± 37
Cc1ccc(-c2nc(Cc3ccc(/C=C/CSCC(=O)O)o3)c(C)o2)cc1 [Example 3(1), 2-((2E)-3-(5-(5-methyl-2-(4-methylphenyl)oxazol-4-ylmethyl)furan-2-yl)-2-propenylthio)acetic acid] | 1.1 | 1.5 | 92 ± 26 | 107 ± 4 | 394 ± 49 | 44 ± 11 | 253 ± 27
CCc1ccc(-c2nc(Cc3ccc(/C=C/CSCC(=O)O)o3)c(C)o2)cc1 [Example 3(3), 2-((2E)-3-(5-(5-methyl-2-(4-ethylphenyl)oxazol-4-ylmethyl)furan-2-yl)-2-propenylthio)acetic acid] | 2.2 | 1.8 | 79 ± 12 | 91 ± 4 | 213 ± 31 | 31 ± 15 | 234 ± 31
Cc1oc(-c2ccc3c(c2)OCO3)nc1Cc1ccc(/C=C/CSCC(=O)O)o1 [Example 3(2), 2-((2E) -3-(5-(5-methyl-2-(1,3-dioxaindan-5-yl)oxazol-4-ylmethyl)furan-2-yl)-2-propenylthio)acetic acid] | 2.3 | 3.1 | 62 ± 7 | 86 ± 6 | 145 ± 18 | 45 ± 12 | 243 ± 37
